Assay results published in PubChem BioAssay (NCI).
“And” between values parts separate entries of the source, which are not always exact repeats. Equal values may be shown once.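 Cultured in 96-well plates, cells were exposed to test compound for 48 hours across five concentrations. GI50 marks 50% less growth. At the TGI there is no net growth.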

Legend:
Test in all cases: NCI tumour cell line growth inhibition, 48 h
ACHN renal = test system: ACHN renal
HOP-62 NSCLC = test system: HOP-62 NSCLC
HS 578T breast = test system: HS 578T breast
M14 melanoma = test system: M14 melanoma
MALME-3M melanoma = test system: MALME-3M melanoma
MCF7 breast = test system: MCF7 breast
MDA-N = test system: MDA-N
MOLT-4 leukemia = test system: MOLT-4 leukemia
NCI-H23 lung = test system: NCI-H23 lung
NCI-H460 lung = test system: NCI-H460 lung
OVCAR-4 ovarian = test system: OVCAR-4 ovarian
PC-3 prostate = test system: PC-3 prostate
SF-295 CNS = test system: SF-295 CNS
SK-MEL-2 melanoma = test system: SK-MEL-2 melanoma
SNB-19 CNS = test system: SNB-19 CNS
TK-10 renal = test system: TK-10 renal
UACC-62 melanoma = test system: UACC-62 melanoma

| SMILES | TGI (ACHN renal) [µM] | TGI (HOP-62 NSCLC) [µM] | TGI (HS 578T breast) [µM] | TGI (M14 melanoma) | TGI (MALME-3M melanoma) [µM] | TGI (MCF7 breast) [µM] | TGI (MDA-N) [µM] | TGI (MOLT-4 leukemia) [µM] | TGI (NCI-H23 lung) [µM] | TGI (NCI-H460 lung) [µM] | TGI (OVCAR-4 ovarian) [µM] | TGI (PC-3 prostate) [µM] | TGI (SF-295 CNS) [µM] | TGI (SK-MEL-2 melanoma) [µM] | TGI (SNB-19 CNS) [µM] | TGI (TK-10 renal) [µM] | TGI (UACC-62 melanoma) [µM] | GI50 (M14 melanoma) | GI50 (MDA-N) |
| --- | --- | --- | --- | --- | --- | --- | --- | --- | --- | --- | --- | --- | --- | --- | --- | --- | --- | --- | --- |
| CN(C)Cc1cc(N=Nc2ccc(Cl)cc2)ccc1O | 29.3 | 21.7 | 31.3 | 53.1 µM | 27.2 | 31.4 | 42.9 | 31.8 | 45.2 | 26.7 | 45.7 | 30.3 | 30.9 | 38.1 | 34.1 | 28.4 | 30.1 | – | – |
| COC(=O)[C@@H]1Cc2cc(O)c(O)cc2C2(CCN(C)CC2)O1 | > 10 | > 10 | > 10 | > 10 µM | > 10 | > 10 | > 10 | > 10 | > 10 | > 10 | > 10 | > 10 | > 10 | > 10 | > 10 | > 10 | > 10 | – | – |
| O=C(Nn1cnn2c(=O)c3ccccc3nc2c1=O)c1ccccc1 | > 100 | > 100 | > 100 | > 100 µM | > 100 | > 100 | > 100 | – | > 100 | > 100 | > 100 | > 100 | > 100 | > 100 | > 100 | > 100 | > 100 | – | – |
| COC(=O)c1c2c(cc3c1CC1(Cc4cc5c(cc4C1)CCC5)C3)CCC2 | > 100 | > 100 | > 100 | > 100 µM | > 100 | > 100 | > 100 | > 100 | > 100 | > 100 | > 100 | > 100 | > 100 | > 100 | > 100 | > 100 | – | – | – |
| COC(=O)c1c(C(=O)OC)c2c3ccccc3n(C)c2c2c1c1ccccc1n2C | > 100 | 75 | > 100 | > 100 µM | > 100 | > 100 | > 100 | > 100 | > 100 | > 100 | > 100 | > 100 | > 100 | > 100 | 83.3 | > 100 | > 100 | – | – |
| CC(Oc1ccccc1Cl)C(=O)NN1C(=O)CSC1c1ccc(Cl)cc1 (stereo not given) | 63 | 36.4 | 46.3 | 34.5 µM | 93.4 | 35.7 | 29.8 | – | 39.2 | 59.8 | 29.3 | 38.2 | 37.8 | 44.9 | 50.2 | 55.9 | 34 | – | – |
| NC(N)=NS(=O)(=O)c1ccc(NC(=O)c2ccc3[nH]c4ccccc4c(=O)c3c2)cc1 | > 100 | > 100 | > 100 | > 100 µM | > 100 | > 100 | > 100 | > 100 | > 100 | > 100 | > 100 | > 100 | > 100 | > 100 | > 100 | > 100 | > 100 | – | – |
| O=C(NNC(=S)NCc1ccccc1)C12CC3CC(CC(C3)C1)C2 | > 100 | > 100 | > 100 | > 100 µM | > 100 | > 100 | > 100 | > 100 | > 100 | > 100 | > 100 | > 100 | > 100 | > 100 | > 100 | > 100 | > 100 | – | – |
| CCCCCCCCCc1c(O)c(O)c(CCCCCCCCC)c(CCCCCCCCC)c1CCCCCCCCC | > 100 | > 100 | > 100 | > 100 µM | > 100 | > 100 | > 100 | > 100 | > 100 | > 100 | > 100 | > 100 | > 100 | > 100 | > 100 | > 100 | > 100 | – | – |
| C=C1CC(CN2CCC(=O)NC2=O)(c2ccccc2)OC1=O (stereo not given) | 23.8 | 40.3 | 34.6 | 12.8 µM | 8.78 | 2.71 | 26.7 | 7.9 | 22.5 | 38.2 | 3.55 | 30.4 | 43 | 27.9 | > 56.2 | 19.1 | 21.3 | – | – |
| CCC(=O)NCCc1c2c3c(ccnc3c3ncsc13)-c1ccccc1N2 | > 38.3 | > 100 | 18.7 | > 100 µM | > 100 | > 100 | > 100 | > 64.5 | > 100 | 29.1 | > 100 | > 100 | > 100 | > 100 | > 100 | > 100 | > 67.1 | – | – |
| O=C(O)C12C3CCC(O3)C1(C(=O)O)C1CCC2O1 (stereo not given) | > 100 | > 100 | > 100 | 29.6 µM and > 100 µM | > 100 | > 100 | > 100 | > 100 | > 100 | > 100 | – | > 100 | > 100 | > 100 | > 100 | > 100 | > 100 | 16.1 µM and > 100 µM | 31.3 µM and > 100 µM |
| Cn1c(=O)oc2cc(Br)ccc21 | > 100 | > 100 | > 100 | > 100 µM | > 100 | > 100 | > 100 | > 100 | > 100 | > 100 | > 100 | > 100 | > 100 | > 100 | > 100 | > 100 | > 100 | – | – |
| C=CCn1cnc2c(=O)[nH]c(Nc3ccccc3)nc21 | > 100 | > 100 | > 100 | > 100 µM | > 100 | > 100 | > 100 | > 100 | – | > 100 | > 100 | > 100 | > 100 | > 100 | > 100 | > 100 | > 100 | – | – |
